Experimental data: patent US9302999B2, “Substituted triazoles as herbicides” (E. I. DU PONT DE NEMOURS AND COMPANY, priority 2012, dated 2016)

Legend:
Oilseed Rape [1] = assay: Test C preemergence: oilseed rape; assay type: in vivo; details: 31 g ai/ha, scale 0 (no effect) to 100 (complete control)
Waterhemp = assay: Test C postemergence: waterhemp; assay type: in vivo; details: 62 g ai/ha, scale 0 to 100 (0 no effect, 100 complete control)
Method in brief: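 Greenhouse pot test; foliar postemergence treatment at 1- to 4-leaf stage. Rated visually at 13 to 15 days on a 0–100 control scale relative to untreated plants.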

Oilseed Rape [2] = assay: Test C postemergence: oilseed rape; assay type: in vivo, Brassica napus

CCCc1nn(-c2ccc(C(F)(F)F)c(F)c2)nc1Oc1ccnc(C(F)(F)F)c1 [Compound 185]
Plant response rating, Oilseed Rape (Oilseed Rape [1]): 60
Plant response rating, Waterhemp (Waterhemp): 90
Plant response rating, Oilseed Rape (Oilseed Rape [2]; 125 g ai/ha, scale 0 to 100, 0 no effect, 100 complete control): 50
Plant response rating, Oilseed Rape (Oilseed Rape [2]; 250 g ai/ha, scale 0 to 100 (0 no effect, 100 complete control)): 55
